Experimental findings from patent US20260191815A1, “THIOACRYLAMIDE DERIVATIVES FOR USE IN THE PREVENTION OR TREATMENT OF LIVER FIBROSIS” (CMR CUREDIAB METABOLIC RESEARCH GMBH, priority 2022, published 2026) are described below.

Structures are written as SMILES.

Experiment [1] deals with fibronectin 1 (FN1) protein in LX2 cells. The experiment is described as follows: Simple Western of FN1 protein in TGF-β1-stimulated LX2 hepatic stellate cells. The class given is cell-based, human. The following applies: for upregulation of FN1 in TGF-β1-treated LX2 cells: 10 μM, 30 min pretreatment, then 5 ng/ml TGF-β1 for 24 h; for protein abundance of FN1: sole treatment 10 μM for 24 h, LX2 cells, no TGF-β1. The procedure:
(§1) The human hepatic stellate cell line LX2 was purchased from Merck. The cells were used up to passage ten and incubated under sterile conditions at 37° C. and 5% CO2. The cells were cultivated in medium containing Dulbecco's Modified Eagle's Medium with 4.5 g/l glucose (ThermoFisher), 4 mmol/l glutamine (ThermoFisher), 2% fetal bovine serum (FBS) (Merck), 100 U/ml penicillin and 100 μg/ml streptomycin (Merck). After 2 days, LX2 cells were starved for FBS for 24 h and then pretreated with 10 μM HK1 (Taros Chemicals GmbH & Co. KG) or 10 μM HK3 (Taros Chemicals GmbH & Co. KG) for 30 min. Subsequently, 5 ng/ml recombinant TGF-β1 (R&D Systems, Minneapolis, MN, USA) was added to the hepatic stellate cell cultures for 24 h. LX2 cells were also incubated with 5 ng/ml TGF-β1 alone as positive control for the hepatic stellate cell activation. Recombinant TGF-β1 was dissolved in sterile 4 mmol/l HCl (Merck) containing 0.1% bovine serum albumin (Roth Karlsruhe, Germany) as carrier protein. HK1 and HK3 were dissolved in sterile dimethyl sulfoxide (DMSO) (Sigma-Aldrich, Munich, Germany). Stimulations with 10 μM HK1, 10 μM HK3 and the corresponding vehicles (HCl and DMSO with or without HCl) alone for 24 h were also included as treatments.
For the measurement of the pro-fibrotic proteins, Western Blotting was performed. Proteins were extracted from whole cell lysate of LX2 cells using RIPA lysis buffer containing 50 mmol/l Tris-HCl (pH 8.0), 150 mmol/l NaCl, 1% IGEPAL® CA-630, 0.5% sodium deoxycholate, 0.1% sodium dodecyl sulfate, 10% PhosSTOP Phosphatase Inhibitor Cocktail (Roche, Basel, Switzerland) and 10% cOmplete Mini Protease Inhibitor Cocktail (Roche). Lysates were centrifuged at 14850×g for 15 min at 4° C. Then, the total protein content of the lysates was determined using a bicinchoninic acid protein assay (ThermoFisher Scientific) in accordance with the manufacturer's instructions. The quantification of protein abundance was performed by Simple Western size-based assays using a 12-230 kDa and 66-440 kDa Separation Module (ProteinSimple, San Jose, CA, USA) according to the manufacturer's instructions. This fully automated Western blotting system is based on a capillary electrophoresis technology. The separation, immobilization to the capillary wall via a proprietary, photoactivated capture chemistry and immunodetection of the proteins using a horseradish peroxidase (HRP)-conjugated secondary antibody and chemiluminescent substrate take place directly in the capillary without gel separation and transfer steps to blotting paper. The chemiluminescence is measured at multiple exposure times and automatically quantified by the Compass for Simple Western software (version 4.1.0) (ProteinSimple). The chemiluminescent signal for immunodetected proteins, which can be represented as an electropherogram or virtual blot-like image, is automatically quantified by calculation of the area under the curve of the peak.
The software reports the molecular weight, the area (in an arbitrary unit and in percent) and signal to noise ratio for each protein detected. The primary antibodies for the recognition of endogenous levels of total alpha-1 type 1 collagen (COL1A1) protein (#72026) and total fibronectin 1 (FN1) protein (#26836) were purchased from Cell Signaling Technology (Danvers, MA, USA). The anti-rabbit HRP-linked secondary antibody was from ProteinSimple. […]
(§2) Differences were analysed by one-way ANOVA followed by the Tukey method as correction for multiple testing.

Experiment [2] deals with caspase 3/7 activity in HepG2 cells. The experiment is described as follows: Caspase 3/7 activity provoked by palmitate in HepG2 cells. It counts as cell-based. The note with it: for reduction of the caspase 3/7 activity provoked by palmitate, compared among thioacrylamide derivatives: 100 nM + palmitate 200 μM, n=4; for activity at 10 µM: Homo sapiens, 10 μM pre-treatment 30 min + palmitate 200 μM, 24 h, read-out: caspase 3/7 activity, % of control. The procedure: (§3) The potential protective effect of HK1 and HK3 on caspase 3/7 activity in HepG2 cells and primary human hepatocytes was analysed.
(§4) HepG2 cells were obtained from Merck (Darmstadt, Germany) (ECACC-certified), while primary human hepatocytes were obtained from Thermo Fisher Scientific (Waltham, MA, USA), and all were cultured according to the instructions of the respective manufacturers. During experiments, cells were cultured in serum-free medium. Unless otherwise stated, cells were treated with 200 μM bovine serum albumin (BSA)-conjugated palmitate (Cayman Chemicals, Ann Arbor, MI) alone or in combination with 10 μM HK1 (Taros Chemicals GmbH & Co. KG, Dortmund, Germany) and HK3 (Taros Chemicals GmbH & Co. KG, Dortmund, Germany) 30 min prior to palmitate exposure for 24 hours. The vehicle BSA was used according to the palmitate concentration and DMSO according to HK1 and HK3 concentration. 2 μM Staurosporine (Abcam, Cambridge, GB) was used as a positive and 100 μM Caspase 3/7 inhibitor (CI) (Cayman Chemicals) as a negative control.
(§5) Differences were analysed by one-way ANOVA.
A hepatoprotective effect was determined as described in Example 4. A treatment was performed with HK1, HK2, HK3, HK4 or HK5 (100 nM) either alone or in combination with palmitate (200 μM).
Differences were analysed by one-way ANOVA, n=4.

In experiment [3] the test system is caspase 3/7 activity in primary human hepatocytes. In words: Caspase 3/7 activity provoked by palmitate in primary human hepatocytes. It counts as cell-based. The following applies: Hepatocyte, 10 μM pre-treatment + palmitate 200 μM, read-out: caspase 3/7 activity, % of control. How it is done: as §3, §4, §5
Experiment [4] has as its system interleukin-6 (IL-6) secretion by LX2 cells. In words: Olink Inflammation immunoassay of LX2 supernatants: IL-6. The class given is cell-based, human. The note with it: for amount of secreted IL-6 after combined treatment with TGF-β1: 10 μM + 5 ng/ml TGF-β1, LX2 cells. How it is done:
as §1
LX2 cells were cultured and treated as described in Example 1. After the incubation time, the supernatants of LX2 cells were collected, centrifuged for 10 min at 2000×g at 4° C. and transferred to new tubes to measure 92 proteins in the cell culture supernatants simultaneously using the Olink Inflammation multiplex immunoassay (Olink proteomics, Uppsala, Sweden). This panel covers 92 proteins, including pro- and anti-inflammatory cytokines, growth factors, chemokines and factors involved in biological processes such as apoptosis, inflammatory and immune response, cell adhesion, chemotaxis, or fibrosis. This protein quantification method is based on a proximity extension assay technology, which combines a dual-recognition immunoassay using two matched antibodies labelled with DNA oligonucleotides, with a polymerase chain reaction (PCR) amplification and a microfluidic quantitative real-time PCR as readout. The biomarker concentrations are given as normalized protein expression (NPX) values, which were generated from the threshold cycle values from the qPCR, and represent an arbitrary unit on a log 2 scale.
as §2

As for `Cc1cc(NC(=S)/C(C#N)=C(\O)C2CC2)ccc1F` [HK1, 2-Cyano-3-cyclopropyl-N-(4-fluoro-3-methyl-phenyl)-3-hydroxy-thioacrylamide], in experiment [1], the “upregulation of FN1 in TGF-β1-treated LX2 cells” value is on record as “completely suppressed” and the “protein abundance of FN1” value is listed as “no impact”. In experiment [2], the “reduction of the caspase 3/7 activity provoked by palmitate, compared among thioacrylamide derivatives” value was “stronger reduction” and the activity at 10 µM was 263%. The activity at 10 µM in experiment [3] amounted to 85.6%. In addition, the “attenuation of protein content of IL-6 compared to TGF-treated LX2 cells” value in experiment [4] (10 μM + 5 ng/ml TGF-β1) worked out at 59%. For the same molecule, the “amount of secreted IL-6 after combined treatment with TGF-β1” value in experiment [4] is reported as “downregulated”.
On to `Cc1cc(NC(=S)/C(C#N)=C(\O)C2CC2)ccc1[N+](=O)[O-]` [HK3, 2-Cyano-3-cyclopropyl-3-hydroxy-N-(3-methyl-4-nitro-phenyl)-thioacrylamide], for which, in experiment [1], the “upregulation of FN1 in TGF-β1-treated LX2 cells” value was “completely suppressed” and the “protein abundance of FN1” value is on record as “no impact”. For the same molecule, in experiment [2], the “reduction of the caspase 3/7 activity provoked by palmitate, compared among thioacrylamide derivatives” value is reported as “strongest reduction” and the activity at 10 µM stood at 42.3%. Moreover, in experiment [3], the activity at 10 µM worked out at 41.7%. In addition, the “amount of secreted IL-6 after combined treatment with TGF-β1” value in experiment [4] is “downregulated”.
